We go through 13 compounds from BindingDB's records for doi:10.1021/acschembio.6b00596 (Jagiellonian University, 2016).

SMILES strings stand for the structures.

Experiment [1] addresses T1, E3 ubiquitin-protein ligase Mdm2 [1-118] (Homo sapiens, UniProt Q00987).
T1 construct: 1-118
The experiment in a line: NMR Measurements. To be noted: pH 7.4; 15 °C.

Experiment [2] addresses T2, E3 ubiquitin-protein ligase Mdm2 [1-118,T47W] (Homo sapiens, UniProt Q00987, T47W).
T2 construct: 1-118
The experiment in a line: Microscale Thermophoresis (MT) Binding Assay. To be noted: pH 7.4; 25 °C. The procedure:
Experiments were performed in 50 mM phosphate buffer at pH 7.4 containing 150 mM NaCl, 5 mM DTT, and 5% DMSO.
For orientation: Microscale thermophoresis detects binding through changes in fluorescence in a small temperature gradient.

For `O=C1OC(O)(Cc2ccc(Cl)cc2)C(Cc2ccc(Cl)cc2)=C1c1c[nH]c2cc(Cl)ccc12` (centres undefined) [4,5-di(4-chlorobenzyl)-3-(6-chloro-1H-indol-3-yl)-5-hydroxy-1,5-dihydro-2H-furan-2-one (2b)], the dissociation constant (Kd) (in general, the equilibrium constant for the complex coming apart) in experiment [1] turned out to be 86 µM; in experiment [2] it was 1.5 µM.

As to `CN1C(=O)C(c2ccc(Cl)cc2)=C(c2cn(C)c3cc(Cl)ccc23)C1(O)Cc1ccc(Cl)cc1` (centres undefined) [N-Methyl-5-(4-chlorobenzyl)-4-(6-chloro-1-methyl-1H-indol-3-yl)-3-(4-chlorophenyl)-5-hydroxy-1,5-dihydro-2H-pyrrol-2-one (1e)], the Kd in experiment [1] came out at 365 µM; in experiment [2], 40.5 µM.

On to `O=C1C(c2c[nH]c3cc(Cl)ccc23)=C(c2ccc(Cl)cc2)C(O)N1Cc1ccc(Cl)cc1` (centres undefined) [N-(4-Chlorobenzyl)-3-(6-chloro-1H-indol-3-yl)-4-(4-chlorophenyl)-5-hydroxy-1,5-dihydro-2H-pyrrol-2-on (1h)], for which the Kd in experiment [1] turned out to be 40 µM; in experiment [2], 2.1 µM.

With `CN1C(=O)C(Cc2ccc(Cl)cc2)=C(c2c[nH]c3cc(Cl)ccc23)C1(O)Cc1ccc(Cl)cc1` (centres undefined) [N-Methyl-3,5-di(4-chlorobenzyl)-4-(6-chloro-1H-indol-3-yl)-5-hydroxy-1,5-dihydro-2H-pyrrol-2-one (1a)], the Kd in experiment [1] was below 1 µM; in experiment [2] it was 0.5 µM.

As to `O=C1C(c2ccc(Cl)cc2)=C(c2c[nH]c3cc(Cl)ccc23)C(O)N1Cc1ccc(Cl)cc1` (centres undefined) [N-(4-chlorobenzyl)-4-(6-chloro-1H-indol-3-yl)-3-(4-chlorophenyl)-5-hydroxy-1,5-dihydro-2H-pyrrol-2-on (1g)], the Kd in experiment [1] came to 164 µM; in experiment [2], 24.4 µM.

Take `CN1C(=O)C(c2ccc(Cl)cc2)=C(c2c[nH]c3cc(Cl)ccc23)C1(O)Cc1ccc(Cl)cc1` (centres undefined) [N-Methyl-5-(4-chlorobenzyl)-4-(6-chloro-1H-indol-3-yl)-3-(4-chlorophenyl)-5-hydroxy-1,5-dihydro-2H-pyrrol-2-one (1c)]: the values for the Kd in experiment [1] and in experiment [2] were 51 µM and 18.7 µM, respectively.

With `O=C1OC(O)(Cc2ccc(F)cc2)C(Cc2ccc(Cl)cc2)=C1c1c[nH]c2cc(Cl)ccc12` (centres undefined) [4-(4-chlorobenzyl)-3-(6-chloro-1H-indol-3-yl)-5-(4-fluorobenzyl)-5-hydroxy-1,5-dihydro-2H-furan-2-one (2d)], the Kd in experiment [2] stood at 26 µM.

Take `O=C1OC(O)(Cc2ccc(Cl)cc2)C(c2c[nH]c3cc(Cl)ccc23)=C1c1ccc(Cl)cc1` (centres undefined) [5-(4-Chlorobenzyl)-4-(6-chloro-1H-indol-3-yl)-3-(4-chlorophenyl)-5-hydroxy-1,5-dihydro-2H-furan-2-one (2e)]: the Kd in experiment [1] was 60 µM; in experiment [2], 1.3 µM.

On to `O=C1OC(O)(Cc2ccc(F)cc2)C(c2c[nH]c3cc(Cl)ccc23)=C1Cc1ccc(Cl)cc1` (centres undefined) [3-(4-Chlorobenzyl)-4-(6-chloro-1H-indol-3-yl)-5-(4-fluorobenzyl)-5-hydroxy-1,5-dihydro-2H-furan-2-one (2c)], for which the Kd in experiment [1] was 18 µM; in experiment [2], 28.7 µM.

Consider `CN1C(=O)C(c2cn(C)c3cc(Cl)ccc23)=C(c2ccc(Cl)cc2)C1(O)Cc1ccc(Cl)cc1` (centres undefined) [N-methyl-5-(4-chlorobenzyl)-3-(6-chloro-1-methyl-1H-indol-3-yl)-4-(4-chlorophenyl)-5-hydroxy-1,5-dihydro-2H-pyrrol-2-one (1f)], for which the figures for the Kd in experiment [1] and in experiment [2] were 246 µM and 30.4 µM, respectively.

In the case of `CN1C(=O)C(c2c[nH]c3cc(Cl)ccc23)=C(Cc2ccc(Cl)cc2)C1(O)Cc1ccc(Cl)cc1` (centres undefined) [N-methyl-4,5-di(4-chlorobenzyl)-3-(6-chloro-1H-indol-3-yl)-5-hydroxy-1,5-dihydro-2H-pyrrol-2-one (1b)], in experiment [1], binding was characterised by a dissociation constant (Kd) of 56 µM.

Regarding `CN1C(=O)C(c2c[nH]c3cc(Cl)ccc23)=C(c2ccc(Cl)cc2)C1(O)Cc1ccc(Cl)cc1` (centres undefined) [N-methyl-5-(4-chlorobenzyl)-3-(6-chloro-1H-indol-3-yl)-4-(4-chlorophenyl)-5-hydroxy-1,5-dihydro-2H-pyrrol-2-one (1d)], the Kd is 192 µM in experiment [1] and 27.7 µM in experiment [2].

In the case of `O=C1OC(O)(Cc2ccc(Cl)cc2)C(c2ccc(Cl)cc2)=C1c1c[nH]c2cc(Cl)ccc12` (centres undefined) [5-(4-chlorobenzyl)-3-(6-chloro-1H-indol-3-yl)-4-(4-chlorophenyl)-5-hydroxy-1,5-dihydro-2H-furan-2-one (2f)], the dissociation constant Kd in experiment [1] worked out at 68 µM; in experiment [2], 7 µM.
